The text below walks through data of patent publication US10160766B1, “Benzopyranyl tetracycle compound and pharmaceutical composition having excellent anti-inflammatory effect comprising the same” (Spark Biopharma, Inc., priority 2017, dated 2018).

Holding throughout (assay type): cell-based
Data set [1] concerns NO release in Raw264.7 cells. The data set can be described thus: Griess assay, inhibition of nitric oxide release. The note with it: for NO Inhibition rate (%): 100 ng/mL LPS and compounds 24 hours, compared with control group; for inhibitory effect on NO release, in words, compared with Compound 1d: 100 ng/mL LPS, 24 hours. The procedure:
Thus, the Griess assay was used to measure nitric oxide secretion for inflammation inhibition in Raw264.7 cells.
Raw 264.7 macrophage cell was cultured in Dulbecco Modified Eagle Medium (DMEM) with 10% (v/v) fetal bovine serum (FBS) and 1% (v/v) antibiotic-anti mycotic solution.
Cell was maintained in a 100 mm cell culture dish under cell culture conditions (5% CO2 incubator at 37° C. with humidified atmosphere).
Griess assay reagent was generated prior to the assay with the following contents listed below: N-(1-naphthyl) ethylenediamine dihydrochloride, 0.1% (m/v); sulfanilamide, 1% (m/v); phosphoric acid (85%); 5% (v/v) in deionized water.
Raw 264.7 cell was seeded in transparent 96-well plate and maintained for 1 day. Media was aspirated, and each well was washed with serum free DMEM for twice. Each well was refilled with serum-free DMEM.
Then 100 ng/mL LPS and compounds were treated afterward and cultured for 24 hours. After the incubation, the supernatant culture media was transferred to new 96-well plate and mixed with 50 μL of Griess assay reagent.
Media-reagent mixture was incubated at room temperature for several minutes. Absorbance was read at 548 nm. Four wells each were used for the control experiment, LPS and DMSO (without any compounds) treated well, and DMSO-only treated well. Blank values were measured.
Blank values were measured by mixing 50 μL of Griess assay reagent with […] and 1% antibiotic-antimycotic containing DMEM.
As for the compounds in which the double bond of the tetrahydropyridazine ring in Compound 1d is moved or eliminated, the inhibition rate of NO release was measured in the same manner as in Test Example 2.
The inhibition rate of NO release for Compounds 2a to 2o prepared in Example 2 was tested in order to confirm the anti-inflammatory effect for the above compounds.

A further data set deals with Raw 264.7 cell. In words: WST (water-soluble tetrazolium) analysis, relative cell viability. The note with it: 100 ng/mL LPS and compounds 24 hours. On the procedure: Relative cell viability of Compound 2a to 2o prepared in Examples 2 was measured by WST (water-soluble tetrazolium) analysis.
Raw 264.7 cell was seeded in transparent 96-well plate and maintained for 1 day.
Media was aspirated, and each well was washed with serum free DMEM for twice. Each well was refilled with serum-free DMEM. Then, 100 ng/mL LPS and compounds were treated afterward and cultured for 24 hours. After the incubation, the supernatant culture media was transferred to new 96-well plate.
Immediately after transferring media, cell-seeded wells were refilled with 100 μL of 10% FBS and 1% antibiotic-antimycotic containing DMEM. Then, 10 μL of Ez-cytox WST assay reagent was used to treat each well, following the manufacturer's protocol.
After incubating for 20 min in a 5% CO2 incubator at 37° C. with humidified atmosphere, absorbance was read at 450 nm.
Blank values were obtained from the well only treated with 10% FBS and 1% antibiotic-antimycotic containing DMEM.

Data set [2] deals with TNF-α secretion in Raw264.7 cell. In words: ELISA of secreted TNF-α. The note with it: Mus musculus, LPS 100 ng/mL, compounds 10 μM, read-out: TNF-α Inhibition Rate (%). On the procedure: Thus, in order to additionally confirm the inflammation inhibitory effects of Compounds 2f to 2l, the inhibition rate of TNF-α secretion was quantitatively measured by ELISA.
Cells were treated with each Compound 1d, or 2f to 2l, and LPS for 24 hours, followed by ELISA for TNF-α present in the culture solution.
In order to measure the amount of secreted TNF-α, Raw264.7 cell was seeded in transparent 96-well plate and maintained for 1 day. Media was aspirated after 1 day and replaced to serum-free DMEM with 1% (v/v) antibiotic-antimycotic solution. LPS and compounds were treated in a final concentration of 100 ng/mL and 10 μM.
Standard curve was plotted by the dose-dependent treatment of the control TNF-α protein provided with the ELISA kit. Blank value was measured by adding solutions without TNF-α substrate.
The TNF-α secretion inhibition rate of Compounds 1d, and 2f to 2l was confirmed, when compared with control groups.

For orientation: inhibition means the share of the control response that was lost under treatment.

For the molecule `CC1(C)Oc2ccccc2C2C1=CCn1c(=O)n(-c3ccccc3)c(=O)n12` (stereo not shown) [Compound 1a], in data set [1], the “NO Inhibition rate (%)” value was 83%.
On to `CNc1ccc2c(c1)OC(C)(C)C1=CCn3c(=O)n(-c4ccccc4)c(=O)n3C12` (stereo not shown) [Compound 1b], for which the “NO Inhibition rate (%)” value in data set [1] was 52%.
For the molecule `CC1(C)Oc2cc(F)ccc2C2C1=CCn1c(=O)n(-c3ccccc3)c(=O)n12` (stereo not shown) [Compound 1c], the “NO Inhibition rate (%)” value in data set [1] is on record as 79%.
On the same count and under the same terms, next, `COc1ccc2c(c1)OC(C)(C)C1=CCn3c(=O)n(-c4ccccc4)c(=O)n3C12` (stereo not shown) [Compound 1e]: 44%; `COc1ccc2c(c1)C1C(=CCn3c(=O)n(-c4ccccc4)c(=O)n31)C(C)(C)O2` (stereo not shown) [Compound 1f]: 55%.
As for `COc1cc2c(cc1OC)C1C(=CCn3c(=O)n(-c4ccccc4)c(=O)n31)C(C)(C)O2` (stereo not shown) [Compound 1g], the “NO Inhibition rate (%)” value in data set [1] is given as 44%.
Consider `COc1ccc2c(c1O)OC(C)(C)C1=CCn3c(=O)n(-c4ccccc4)c(=O)n3C12` (stereo not shown) [Compound 1h], for which the “NO Inhibition rate (%)” value in data set [1] is recorded as 26%.
On to `CCCN1CCC2(CC1)Oc1cc(O)ccc1C1C2=CCn2c(=O)n(-c3ccccc3)c(=O)n21` (stereo not shown) [Compound 1i], for which, in data set [1], the “NO Inhibition rate (%)” value is 47% and the “inhibitory effect on NO release, in words, compared with Compound 1d” value is “significantly reduced”.
Regarding `CC(=O)N1CCC2(CC1)Oc1cc(O)ccc1C1C2=CCn2c(=O)n(-c3ccccc3)c(=O)n21` (stereo not shown) [Compound 1j], in data set [1], the “NO Inhibition rate (%)” value stood at 36% and the “inhibitory effect on NO release, in words, compared with Compound 1d” value is on record as “significantly reduced”.
With `Cn1c(=O)n2n(c1=O)C1C(=CC2)C(C)(C)Oc2cc(O)ccc21` (stereo not shown) [Compound 2a], the “NO Inhibition rate (%)” value in data set [1] worked out at 45%. Besides, the “Relative Cell Viability (%)” value in the data set with Raw 264.7 cell was found to be 114%.
Regarding `CC1(C)Oc2cc(O)ccc2C2C1=CCn1c(=O)n(Cc3ccccc3)c(=O)n12` (stereo not shown) [Compound 2b], the “NO Inhibition rate (%)” value in data set [1] was 70%. For the same molecule, in the data set with Raw 264.7 cell, the “Relative Cell Viability (%)” value was 106%.
For the molecule `CC1(C)Oc2cc(O)ccc2C2C1=CCn1c(=O)n(C3CCCCC3)c(=O)n12` (stereo not shown) [Compound 2c], the “NO Inhibition rate (%)” value in data set [1] was determined as 63%. In the data set on Raw 264.7 cell, the “Relative Cell Viability (%)” value is reported as 117%.
Consider `CC1(C)Oc2cc(O)ccc2C2C1=CCn1c(=O)n(-c3ccccc3I)c(=O)n12` (stereo not shown) [Compound 2d], for which the “Relative Cell Viability (%)” value with Raw 264.7 cell amounted to 109%.
`COc1ccccc1-n1c(=O)n2n(c1=O)C1C(=CC2)C(C)(C)Oc2cc(O)ccc21` (stereo not shown) [Compound 2e]: the “Relative Cell Viability (%)” value in the data set on Raw 264.7 cell amounted to 115%.
In the case of `COc1cccc(-n2c(=O)n3n(c2=O)C2C(=CC3)C(C)(C)Oc3cc(O)ccc32)c1` (stereo not shown) [Compound 2f], the “NO Inhibition rate (%)” value in data set [1] was found to be 96%. In the data set on Raw 264.7 cell, the “Relative Cell Viability (%)” value is listed as 118%. The inhibition at 10 µM in data set [2] worked out at 38%.
For `COc1ccc(-n2c(=O)n3n(c2=O)C2C(=CC3)C(C)(C)Oc3cc(O)ccc32)cc1` (stereo not shown) [Compound 2g], in that order: 89%, 127% and 44%.
In the case of `CC1(C)Oc2cc(O)ccc2C2C1=CCn1c(=O)n(-c3ccc(F)cc3)c(=O)n12` (stereo not shown) [Compound 2h], the “NO Inhibition rate (%)” value in data set [1] turned out to be 87%. In addition, the “Relative Cell Viability (%)” value with Raw 264.7 cell is given as 109%. In addition, in data set [2], the inhibition at 10 µM is 44%.
On to `Cc1ccc(-n2c(=O)n3n(c2=O)C2C(=CC3)C(C)(C)Oc3cc(O)ccc32)cc1` (stereo not shown) [Compound 2i], for which the “NO Inhibition rate (%)” value in data set [1] came to 94%. In addition, the “Relative Cell Viability (%)” value in the data set with Raw 264.7 cell is 130%. Moreover, the inhibition at 10 µM in data set [2] was determined as 45%.
Turning to `CC1(C)Oc2cc(O)ccc2C2C1=CCn1c(=O)n(-c3ccc(C(F)(F)F)cc3)c(=O)n12` (stereo not shown) [Compound 2m], the “NO Inhibition rate (%)” value in data set [1] is 85%. Further, the “Relative Cell Viability (%)” value in the data set with Raw 264.7 cell worked out at 106%.
Regarding `CC1(C)Oc2cc(O)ccc2C2C1=CCn1c(=O)n(-c3ccc(C(C)(C)C)cc3)c(=O)n12` (stereo not shown) [Compound 2n], the “NO Inhibition rate (%)” value in data set [1] is reported as 99%. In the data set with Raw 264.7 cell, the “Relative Cell Viability (%)” value amounted to 105%.
As to `CCCCc1ccc(-n2c(=O)n3n(c2=O)C2C(=CC3)C(C)(C)Oc3cc(O)ccc32)cc1` (stereo not shown) [Compound 2o], the “NO Inhibition rate (%)” value in data set [1] was 99%. For the same molecule, in the data set with Raw 264.7 cell, the “Relative Cell Viability (%)” value was 50%.
